Test results from patent US20100008980A1, “Use of MAGE A3-Protein D Fusion Antigen in Immunotherapy Combined with Surgery, Chemotherapy or Radiotherapy for the Treatment of Cancer” (priority 2007, published 2010).
Like-named read-outs stand apart in the source and are kept apart here.

What was measured:
CD4+CD25+ Treg = type: in vivo, CB6F1 female mice; conditions: for % CD4+ CD25+/ total cell / % Treg/ total cell / CD4+ CD25+ (events): blood, CY 2 mg IP at day 0
Protocol: (§1) Groups of CB6F1 female mice (n=10/group) received at day 0 sub-cutaneous (SC) 10e5 TC1-Mage3 cells followed by injection of: • Group 1: PBS at day 3-7-11-15 • Group 2: MAGE-A3 (1 μg)/As 15 ASCI at day 3-7-11-15 • Group 3: Cyclophosphamide (CY) (2 mg IP) at day 0+PBS at day 3-7-11-15 • Group 4: CY+MAGE-A3 (1 μg)/AS15 ASCI
(§2) • verification of the depletion by FACS at day 3 and 15 on whole blood • in vivo tumor growth from day 0 to day 28 • ICS at day 28 on spleen cells • serology at day 28 (not completed)
(§3) In order to analyze the impact of 2 mg of CY injected intraperitoneally in mice, 3 and 15 days after the injection blood was taken and lymphocytes count was performed by FACS

lymphocytes = type: in vivo, CB6F1 female mice; conditions: for Total Cell count (multisizer): blood, CY 2 mg IP at day 0
Protocol: as §1, §2, §3

MAGE-A3 = test system: MAGE-A3
Protocol: as §1, §2
14 days after the last ASCI injection, the T cell response was analyzed by intracellular cytokine staining of CD4 and CD8 using flow cytometry (3 pools per group) after a short in vitro restimulation (2 Hrs) with the pool of MAGE-A3 overlapping peptide spanning the entire MAGE-A3 sequence.

TC1-Mage3 cells = type: in vivo, CB6F1 female mice; conditions: 10e5 TC1 MAGE3 cells SC day 0; cyclophosphamide 2 mg at day 0; groups of 10 mice
Protocol: as §1, §2

SMILES: O=P1(N(CCCl)CCCl)NCCCO1 (stereo not shown) [Cyclophosphamide (Cy), Cyclophosphamide]
- number of T reg (in words) (CD4+CD25+ Treg; 3 days after 2 mg cyclophosphamide): only slightly decreased the number of T reg but did not deplete them
- % CD4+ CD25+/ total cell (CD4+CD25+ Treg; 3 days): 0.1%
- % Treg/ total cell (CD4+CD25+ Treg; 3 days): 0.07%
- CD4+ CD25+ (events) (CD4+CD25+ Treg; 3 days): 274 events
- % CD4+ CD25+/ total cell (CD4+CD25+ Treg; 15 days): 0.16%
- % Treg/ total cell (CD4+CD25+ Treg; 15 days): 0.13%
- CD4+ CD25+ (events) (CD4+CD25+ Treg; 15 days): 539 events
- total number of T cells (in words) (lymphocytes; 3 days after 2 mg CY): has an impact on the total number of T cells
- total number of T cells (in words) (lymphocytes; 15 days after the injection of CY): almost restored
- Total Cell count (multisizer) (lymphocytes; 3 days after injection): 1 ×10e6 cells/ml
- Total Cell count (multisizer) (lymphocytes; 15 days after injection): 5.53 ×10e6 cells/ml
- MAGE-A3 specific CD4 response (MAGE-A3; cyclophosphamide by itself, spleen cells day 28, FIG. 1): did not induce any MAGE-A3 specific CD4 response
- MAGE-A3 specific CD8 response (MAGE-A3; cyclophosphamide by itself, spleen cells day 28, FIG. 2): did not induce any MAGE_A3 specific CD8 response
- effect on the CD4 response induced by the ASCI (MAGE-A3; cyclophosphamide given 3 days before the ASCI, FIG. 1): did not abolish the CD4 response induced by the ASCI there is even a trend in favor of a better response
- effect on the CD8 response induced by the ASCI (MAGE-A3; cyclophosphamide given 3 days before the ASCI, FIG. 2): did not abolish the CD8 response induced by the ASCI there is even a trend in favor of a better response
- tumor rejection, % of the animals (TC1-Mage3 cells): 100%
